The values below come from patent US20080249130A1, “Gut microsomal triglyceride transport protein inhibitors” (Sirtris Pharmaceuticals, Inc., priority 2007, published 2008).

The test system of the test is secretion of ApoB by HepG2 cells. The experiment in a line: ApoB secretion inhibition assay in HepG2 cells (ApoB ELISA). The format is cell-based, human. The settings on record: read-out: IC50 ApoB Assay. The protocol: The ability of the compounds of the present invention to inhibit the secretion of ApoB can be determined using the following cell-based assay, which measures the secretion of ApoB by HepG2 cells. ApoB has two possible metabolic fates: entrance into the lipoprotein assembly pathway within the lumen of the endoplasmic reticulum (ER), or degradation in the cytoplasm by the ubiquitin-dependent proteasome. The destiny of ApoB is determined by the relative availability of individual lipids, which is controlled by MTP (Davis, Biochim. Biophys. Acta, 1999, 1440, 1-31).
HepG2 cells (ATCC, HB-8065) are seeded in 96-well plates in DMEM with 10% FBS+pen/strep at a density of 1×10^5 cells/well (100 μl /well). Twenty-four hours after seeding, the plate is aspirated and the media changed to DMEM with 1% BSA and pen/strep, and the cells are serum-starved for 24 hours. After 24 hour serum-starvation, the plate is aspirated again and the cells are then treated for 24 hours with or without compound in DMEM with 1% BSA, 0.3 mM OA (OA complexed to BSA at a 2:1 ratio) and pen/strep. The final concentration of DMSO in the assay (from compound and control) is 0.1%. After 24 hour treatment, conditioned media is collected in an empty 96-well plate.
Cellular viability is measured using the cell permeable dye, AlamarBlue™. This dye undergoes electron reduction in viable cells but not dead cells. The reduced dye product gives a fluorescent signal which can be monitored with a fluorescence plate reader (excitation 545 nm and emission 575 nm). The amount of fluorescence generated in a given well is proportional to the number of viable cells. After collection, the 96-well plate is re-fed with 100 μl media (DMEM with 10% FBS) and 10 μl Alamar Blue™ per well, incubated for 2 hours and then read in a fluorescence plate reader.
ApoB secretion from HepG2 cells is quantitated by testing the conditioned media at […] using an ApoB ELISA kit (ALerCHEK) according to the manufacturer's instructions. The ELISA assay for ApoB is performed as follows: a polyclonal antibody against human ApoB (Chemicon) is diluted 1:1000 in carbonate-bicarbonate buffer and 100 μl are added to each well of a 96-well plate (NUNC). After 5 hours incubation at room temperature, the antibody solution is removed and wells are washed four times with PBS/0.05% TweenD 20 (Cayman Chemical Co.). Non-specific sites on the plastic plate are blocked by incubating wells for 1 to 1.5 hours in a solution of 0.5% BSA and 0.1% TweenD 20 made in PBS. One hundred microliters of a 1:20 dilution of growth medium from the HepG2 cells (made in 0.004% TweenD 20/1% BSA in PBS) is added to each well and incubated for 3 hours at room temperature. Wells are aspirated and washed four times (0.05% TweenD 20 in PBS) prior to adding 100 μl of a 1:1000 dilution (5 μg/ml) of the secondary antibody, mouse anti-human ApoB (Chemicon). After 2 hours incubation at room temperature, this solution is aspirated and the wells are again washed 4 times as above. One hundred microliters of peroxidase-conjugated affinity purified goat anti-mouse IgG (H+L) (Jackson ImmunoResearch Laboratories) (1:10,000 dilution in PBS/1% BSA/0.1% TweenD 20) is then added to each well and incubated for 1 hour at room temperature. After aspirating, the wells are washed 4 times as above and 50 μl of 1-step Ultra TMB ELISA reagent (Pierce) is added to each well and incubated for 5 minutes. The reaction is stopped by the addition of 50 μl of 2 NH2SO4 and absorbance of each well is read at 450 nm.
(An ELISA detects its analyte on a solid surface through an enzyme-linked reagent.)

[1] abbreviates: Homo sapiens, HepG2, Table 6, assay of Example 2.

Read-outs that look alike come from different tables or passages of the source.

As usually defined, the IC50 is the concentration that gives 50% inhibition. In the case of `Cc1cccc(C(=O)NCC23CCC(C(=O)N[C@H](C(=O)N4CCCC4)c4ccccc4)(CC2)CC3)c1-c1ccc(C(C)(C)C)cc1` [Compound 65], the 50% inhibitory concentration (IC50) came to 5.2 nM under setting [1] and 4.5 nM (Table 6, assay of Example 2). Regarding `Cc1cccc(C(=O)NCC23CCC(C(=O)N[C@H](C(=O)NCC4CC4)c4ccccc4)(CC2)CC3)c1-c1ccc(C(C)(C)C)cc1` [Compound 69], under setting [1], the 50% inhibitory concentration (IC50) turned out to be 8.9 nM. For the compound `Cc1cccc(C(=O)NCC23CCC(C(=O)N[C@H](C(=O)N(C)C(C)C)c4ccccc4)(CC2)CC3)c1-c1ccc(C(C)(C)C)cc1` [Compound 70], the concentration for half-maximal inhibition (IC50) under setting [1] came out at 13.8 nM. On the same count and under the same terms, for `Cc1cccc(C(=O)NCC23CCC(C(=O)N[C@H](C(=O)NCC(C)C)c4ccccc4)(CC2)CC3)c1-c1ccc(C(C)(C)C)cc1` [Compound 71] the value was 14.2 nM. Still for that read-out and setting: for `Cc1cccc(C(=O)NCC23CCC(C(=O)N[C@H](C(=O)N(C)CC(C)C)c4ccccc4)(CC2)CC3)c1-c1ccc(C(C)(C)C)cc1` [Compound 72] the value was 21.8 nM. `CCCCN(C)C(=O)[C@@H](NC(=O)C12CCC(CNC(=O)c3cccc(C)c3-c3ccc(C(C)(C)C)cc3)(CC1)CC2)c1ccccc1` [Compound 74]: the half-inhibitory concentration (IC50) under setting [1] was 19.8 nM.

As to `COc1cccc(C(=O)Nc2ccc3nc(C(=O)N[C@H](C(=O)N(C)Cc4ccc(F)cc4)c4ccccc4)sc3c2)c1-c1ccc(C(C)C)cc1` [Compound 76], the IC50 under setting [1] was 2.8 nM. For the compound `COc1cccc(C(=O)Nc2ccc3nc(C(=O)N[C@H](C(=O)N(C)Cc4ccc(F)cc4)c4ccccc4)sc3c2)c1-c1ccc(C(F)(F)F)cc1` [Compound 80], the concentration for half-maximal inhibition (IC50) under setting [1] stood at 1.6 nM. Take `CC(C)(C)c1ccc(-c2ccccc2C(=O)Nc2nc(-c3ccc(C(=O)N[C@H](C(=O)NCC4CC4)c4ccccc4)cc3)cs2)cc1` [Compound 81]: under setting [1], the IC50 was determined as 61.1 nM. As to `CC(C)CNC(=O)[C@@H](NC(=O)c1ccc(-c2csc(NC(=O)c3ccccc3-c3ccc(C(C)(C)C)cc3)n2)cc1)c1ccccc1` [Compound 82], the IC50 under setting [1] was found to be 197 nM.

In the case of `Cc1cccc(C(=O)Nc2nc(-c3ccc(C(=O)N[C@H](C(=O)N(C)CC(C)C)c4ccccc4)cc3)cs2)c1-c1ccc(C(C)(C)C)cc1` [Compound 87], under setting [1], the 50% inhibitory concentration (IC50) was 339 nM.

For the compound `CCCN(C)C(=O)[C@@H](NC(=O)c1ccc(-c2csc(NC(=O)c3cccc(C)c3-c3ccc(C(C)(C)C)cc3)n2)cc1)c1ccccc1` [Compound 88], the 50% inhibitory concentration (IC50) under setting [1] was determined as 81.3 nM. On the same count and under the same terms, for `Cc1cccc(C(=O)Nc2nc(-c3ccc(C(=O)N[C@H](C(=O)N4CCCC4)c4ccccc4)cc3)cs2)c1-c1ccc(C(C)C)cc1` [Compound 89] the value was 8.8 nM; for `Cc1cccc(C(=O)Nc2nc(-c3ccc(C(=O)N[C@H](C(=O)N(C)CC(C)C)c4ccccc4)cc3)cs2)c1-c1ccc(C(C)C)cc1` [Compound 90], 115 nM; for `CC(C)CN(C)C(=O)[C@@H](NC(=O)c1ccc(-c2csc(NC(=O)c3ccccc3-c3ccc(C(C)(C)C)cc3)n2)cc1)c1ccccc1` [Compound 91], 422 nM.

Take `CCCN(C)C(=O)[C@@H](NC(=O)c1ccc(-c2csc(NC(=O)c3ccccc3-c3ccc(C(C)(C)C)cc3)n2)cc1)c1ccccc1` [Compound 92]: under setting [1], the IC50 was found to be 110 nM.

For `CC(C)N(C)C(=O)[C@@H](NC(=O)c1ccc(-c2csc(NC(=O)c3ccccc3-c3ccc(C(C)(C)C)cc3)n2)cc1)c1ccccc1` [Compound 93], under setting [1], the half-maximal inhibitory concentration (IC50) stood at 89.7 nM. On to `CC(C)c1ccc(-c2ccccc2C(=O)Nc2nc(-c3ccc(C(=O)N[C@H](C(=O)N4CCCC4)c4ccccc4)cc3)cs2)cc1` [Compound 94], for which, under setting [1], the IC50 is 18.5 nM. Same read-out and setting: for `CCCN(C)C(=O)[C@@H](NC(=O)c1ccc(-c2csc(NC(=O)c3ccccc3-c3ccc(C(C)C)cc3)n2)cc1)c1ccccc1` [Compound 95] the value was 228 nM.

Turning to `Cc1cccc(C(=O)NCC23CCC(C(=O)NC(C(=O)N4CCCC4)c4ccccc4)(CC2)CC3)c1-c1ccc(C(C)C)cc1` (stereo not shown) [Compound 96], the IC50 under setting [1] was 11 nM. Still for that read-out and setting: for `CCCN(C)C(=O)[C@@H](NC(=O)c1ccc(-c2csc(NC(=O)c3cccc(C)c3-c3ccc(C(C)C)cc3)n2)cc1)c1ccccc1` [Compound 97] the value was 143 nM; for `Cc1cccc(C(=O)Nc2nc(-c3ccc(C(=O)N[C@H](C(=O)N(C)C(C)C)c4ccccc4)cc3)cs2)c1-c1ccc(C(C)C)cc1` [Compound 98], 49.7 nM. Same read-out and setting: for `CC(C)c1ccc(-c2ccccc2C(=O)Nc2nc(-c3ccc(C(=O)N[C@H](C(=O)N(C)C(C)C)c4ccccc4)cc3)cs2)cc1` [Compound 99] the value was 121 nM. The same measure, in the same setting: for `CC(C)(C)c1csc(-c2ccccc2C(=O)NCC23CCC(C(=O)N[C@H](C(=O)N4CCCC4)c4ccccc4)(CC2)CC3)n1` [Compound 100] the value was 112 nM; for `CCCCN(C)C(=O)[C@@H](NC(=O)C12CCC(NC(=O)c3ccccc3-c3ccc(C(C)(C)C)cc3)(CC1)CC2)c1ccccc1` [Compound 101], 11.7 nM. Take `CC(C)CN(C)C(=O)[C@@H](NC(=O)C12CCC(NC(=O)c3ccccc3-c3ccc(C(C)(C)C)cc3)(CC1)CC2)c1ccccc1` [Compound 102]: the IC50 under setting [1] was found to be 34.1 nM.

Consider `CCCCN(C)C(=O)[C@@H](NC(=O)C12CCC(NC(=O)c3ccccc3-c3ccc(C(C)C)cc3)(CC1)CC2)c1ccccc1` [Compound 103], for which the IC50 under setting [1] came out at 26.1 nM. The same measure, in the same setting: as for `CC(C)c1ccc(-c2ccccc2C(=O)NC23CCC(C(=O)N[C@H](C(=O)N4CCCC4)c4ccccc4)(CC2)CC3)cc1` [Compound 104], the figure is 3.5 nM.

In the case of `CC(C)c1ccc(-c2ccccc2C(=O)NC23CCC(C(=O)N[C@H](C(=O)N(C)Cc4ccc(F)cc4)c4ccccc4)(CC2)CC3)cc1` [Compound 105], under setting [1], the 50% inhibitory concentration (IC50) came to 13.4 nM.

`CC(C)CN(C)C(=O)[C@@H](NC(=O)C12CCC(NC(=O)c3ccccc3-c3ccc(C(C)C)cc3)(CC1)CC2)c1ccccc1` [Compound 106]: the IC50 under setting [1] is 40.2 nM. `Cc1cccc(C(=O)NC23CCC(C(=O)N[C@H](C(=O)N4CCCC4)c4ccccc4)(CC2)CC3)c1-c1ccc(C(C)(C)C)cc1` [Compound 107]: the half-inhibitory concentration (IC50) reads like this: under setting [1], 1.7 nM; (Table 6, assay of Example 2) 1.5 nM.

As for `Cc1cccc(C(=O)NC23CCC(C(=O)N[C@H](C(=O)N(C)Cc4ccc(F)cc4)c4ccccc4)(CC2)CC3)c1-c1ccc(C(C)(C)C)cc1` [Compound 108], the IC50 under setting [1] was found to be 1.2 nM.

As for `COc1cccc(C(=O)NC23CCC(C(=O)N[C@H](C(=O)N4CCCC4)c4ccccc4)(CC2)CC3)c1-c1ccc(C(C)(C)C)cc1` [Compound 109], the IC50 under setting [1] is 8.2 nM. Same read-out and setting: as for `COc1cccc(C(=O)NC23CCC(C(=O)N[C@H](C(=O)N(C)Cc4ccc(F)cc4)c4ccccc4)(CC2)CC3)c1-c1ccc(C(C)(C)C)cc1` [Compound 110], the figure is 14.6 nM; as for `COc1cccc(C(=O)NC23CCC(C(=O)N[C@H](C(=O)N(C)Cc4ccc(F)cc4)c4ccccc4)(CC2)CC3)c1-c1ccc(C(C)C)cc1` [Compound 111], 110 nM. Same read-out and setting: for `Cc1cccc(C(=O)NC23CCC(C(=O)N[C@H](C(=O)N4CCCC4)c4ccccc4)(CC2)CC3)c1-c1ccc(C(C)C)cc1` [Compound 113] the value was 4.4 nM.

Regarding `Cc1cccc(C(=O)NC23CCC(C(=O)N[C@H](C(=O)N(C)Cc4ccc(F)cc4)c4ccccc4)(CC2)CC3)c1-c1ccc(C(C)C)cc1` [Compound 114], the IC50 under setting [1] stood at 3.5 nM. The same measure, in the same setting: for `CCCCN(C)C(=O)[C@@H](NC(=O)C12CCC(NC(=O)c3cccc(OC)c3-c3ccc(C(C)C)cc3)(CC1)CC2)c1ccccc1` [Compound 115] the value was 99.3 nM.
